These results are taken from patent US20250129370A1, “METHOD FOR REDUCING HEPATIC TRIGLYCERIDES” (ADAERATA, LIMITED PARTNERSHIP, priority 2022, published 2025).

Series [1] has as its system PCSK7 mRNA. Put plainly: PCSK7 mRNA qPCR after miRNA overexpression in Huh7 cells. The format is cell-based, human. The following applies: Huh7, 48 hours following transfection, vs mock vector. Here is the method: (§1) RNA was isolated from the cells with the TRIzol™ Reagent (Invitrogen, USA) according to the manufacturer's instructions. The RNA samples were treated with RNase-free DNase I (Fermentas, USA) to eliminate any possible DNA contamination. Reverse transcription was performed using the PrimeScript™ First Strand cDNA Synthesis Kit (Takara, Japan) following the manufacturer's protocol. Briefly, one unit of the DNase I enzyme, 1 μL of a buffer, and 1 μg of total RNA were incubated for 30 minutes at 37° C. Then, 1 μL of 50 mM EDTA was added for enzyme inactivation and incubated at 65° C. for 10 minutes. Subsequently, 5 μL of DNase-treated RNA was added to the mix of 0.5 μL of the reverse-transcriptase enzyme, 2 μL of the reverse-transcriptase buffer, and 1 μL of a random hexamer and incubated for 15 minutes at 37° C., followed by 5 seconds at 85° C. for enzyme inactivation. Stem-loop RT-qPCR method was applied for evaluating the expression of miRNAs (Kramer, 2011). […]
(§2) All the reactions were repeated in duplicates. Next, melt curves were analyzed, with the mean threshold cycles used for further analyses. The relative expressions of the miRNAs and PCSK7 to RNU48 small nuclear RNA and/or GAPDH and β2m were calculated, respectively, via the 2-ΔΔCt method. […]
Background: Real-time PCR tracks product formation cycle by cycle.

Series [2] concerns PCSK7 mRNA. Put plainly: PCSK7 mRNA qPCR after miRNA overexpression in HEK293T cells. The series is classed as cell-based, human. Here is the method: as §1, §2
The test system of series [3] is 3′-UTR of human PCSK7 mRNAs. Description: Dual-luciferase reporter assay, wild-type PCSK7 3′-UTR, HEK293T cells. The series is classed as cell-based. The conditions noted are these: wild-type PCSK7 3′-UTR psiCHECK-2, HEK293T. The text has this:
The interactions between the miRNAs and their probable targets on PCSK7 were explored by cloning the potential target regions in psiCHECK-2™ (Promega, USA), a luciferase reporter vector. In psiCHECK-2™, hRluc, the Renilla luciferase gene, is located upstream of the target regions of interest cloned into the psiCHECK-2™ vector downstream of the Renilla gene. The region corresponding to the 3′-UTR of PCSK7 (926-nt sequences in length) that constituted the predicted miRNA response elements was PCR-amplified and cloned downstream of the Renilla luciferase gene in the psiCHECK-2™ vector (Promega, USA). […]
The HEK293T cells were co-transfected through the application of the wild-type psiCHECK-2, the wild-type PCSK7 3′-UTR, the mutant PCSK7 3′-UTR, and the miR-overexpressing vectors so that the direct interactions of the nominated miRNAs with PCSK7 3′-UTR could be investigated. […] Transfection efficiency was monitored by fluorescent microscopy (Nikon TE2000S, Japan) 36 hours following the procedure.
The PsiCHECK-2 reporter construct plasmid contained the Renilla luciferase gene upstream of PCSK7 3′-UTR and an independent firefly luciferase gene as an internal control for normalization. […] Then, LARII Reagent was added, and after 20 minutes, the firefly luciferase activity was measured as a control. Afterward, Renilla activity was determined using Stop & Glo Reagent. […]
A general note: Reporter assays use an easily measured gene product as a stand-in for the process of interest.

Series [4] deals with T1, endogenous apoB100 of IHH cells (human, UniProt P04114 28-4563).
T1 construct: Endogenous protein in lysates of human IHH cells; also called apolipoprotein B
T1 sequence (P04114 28-4563 limits assumed): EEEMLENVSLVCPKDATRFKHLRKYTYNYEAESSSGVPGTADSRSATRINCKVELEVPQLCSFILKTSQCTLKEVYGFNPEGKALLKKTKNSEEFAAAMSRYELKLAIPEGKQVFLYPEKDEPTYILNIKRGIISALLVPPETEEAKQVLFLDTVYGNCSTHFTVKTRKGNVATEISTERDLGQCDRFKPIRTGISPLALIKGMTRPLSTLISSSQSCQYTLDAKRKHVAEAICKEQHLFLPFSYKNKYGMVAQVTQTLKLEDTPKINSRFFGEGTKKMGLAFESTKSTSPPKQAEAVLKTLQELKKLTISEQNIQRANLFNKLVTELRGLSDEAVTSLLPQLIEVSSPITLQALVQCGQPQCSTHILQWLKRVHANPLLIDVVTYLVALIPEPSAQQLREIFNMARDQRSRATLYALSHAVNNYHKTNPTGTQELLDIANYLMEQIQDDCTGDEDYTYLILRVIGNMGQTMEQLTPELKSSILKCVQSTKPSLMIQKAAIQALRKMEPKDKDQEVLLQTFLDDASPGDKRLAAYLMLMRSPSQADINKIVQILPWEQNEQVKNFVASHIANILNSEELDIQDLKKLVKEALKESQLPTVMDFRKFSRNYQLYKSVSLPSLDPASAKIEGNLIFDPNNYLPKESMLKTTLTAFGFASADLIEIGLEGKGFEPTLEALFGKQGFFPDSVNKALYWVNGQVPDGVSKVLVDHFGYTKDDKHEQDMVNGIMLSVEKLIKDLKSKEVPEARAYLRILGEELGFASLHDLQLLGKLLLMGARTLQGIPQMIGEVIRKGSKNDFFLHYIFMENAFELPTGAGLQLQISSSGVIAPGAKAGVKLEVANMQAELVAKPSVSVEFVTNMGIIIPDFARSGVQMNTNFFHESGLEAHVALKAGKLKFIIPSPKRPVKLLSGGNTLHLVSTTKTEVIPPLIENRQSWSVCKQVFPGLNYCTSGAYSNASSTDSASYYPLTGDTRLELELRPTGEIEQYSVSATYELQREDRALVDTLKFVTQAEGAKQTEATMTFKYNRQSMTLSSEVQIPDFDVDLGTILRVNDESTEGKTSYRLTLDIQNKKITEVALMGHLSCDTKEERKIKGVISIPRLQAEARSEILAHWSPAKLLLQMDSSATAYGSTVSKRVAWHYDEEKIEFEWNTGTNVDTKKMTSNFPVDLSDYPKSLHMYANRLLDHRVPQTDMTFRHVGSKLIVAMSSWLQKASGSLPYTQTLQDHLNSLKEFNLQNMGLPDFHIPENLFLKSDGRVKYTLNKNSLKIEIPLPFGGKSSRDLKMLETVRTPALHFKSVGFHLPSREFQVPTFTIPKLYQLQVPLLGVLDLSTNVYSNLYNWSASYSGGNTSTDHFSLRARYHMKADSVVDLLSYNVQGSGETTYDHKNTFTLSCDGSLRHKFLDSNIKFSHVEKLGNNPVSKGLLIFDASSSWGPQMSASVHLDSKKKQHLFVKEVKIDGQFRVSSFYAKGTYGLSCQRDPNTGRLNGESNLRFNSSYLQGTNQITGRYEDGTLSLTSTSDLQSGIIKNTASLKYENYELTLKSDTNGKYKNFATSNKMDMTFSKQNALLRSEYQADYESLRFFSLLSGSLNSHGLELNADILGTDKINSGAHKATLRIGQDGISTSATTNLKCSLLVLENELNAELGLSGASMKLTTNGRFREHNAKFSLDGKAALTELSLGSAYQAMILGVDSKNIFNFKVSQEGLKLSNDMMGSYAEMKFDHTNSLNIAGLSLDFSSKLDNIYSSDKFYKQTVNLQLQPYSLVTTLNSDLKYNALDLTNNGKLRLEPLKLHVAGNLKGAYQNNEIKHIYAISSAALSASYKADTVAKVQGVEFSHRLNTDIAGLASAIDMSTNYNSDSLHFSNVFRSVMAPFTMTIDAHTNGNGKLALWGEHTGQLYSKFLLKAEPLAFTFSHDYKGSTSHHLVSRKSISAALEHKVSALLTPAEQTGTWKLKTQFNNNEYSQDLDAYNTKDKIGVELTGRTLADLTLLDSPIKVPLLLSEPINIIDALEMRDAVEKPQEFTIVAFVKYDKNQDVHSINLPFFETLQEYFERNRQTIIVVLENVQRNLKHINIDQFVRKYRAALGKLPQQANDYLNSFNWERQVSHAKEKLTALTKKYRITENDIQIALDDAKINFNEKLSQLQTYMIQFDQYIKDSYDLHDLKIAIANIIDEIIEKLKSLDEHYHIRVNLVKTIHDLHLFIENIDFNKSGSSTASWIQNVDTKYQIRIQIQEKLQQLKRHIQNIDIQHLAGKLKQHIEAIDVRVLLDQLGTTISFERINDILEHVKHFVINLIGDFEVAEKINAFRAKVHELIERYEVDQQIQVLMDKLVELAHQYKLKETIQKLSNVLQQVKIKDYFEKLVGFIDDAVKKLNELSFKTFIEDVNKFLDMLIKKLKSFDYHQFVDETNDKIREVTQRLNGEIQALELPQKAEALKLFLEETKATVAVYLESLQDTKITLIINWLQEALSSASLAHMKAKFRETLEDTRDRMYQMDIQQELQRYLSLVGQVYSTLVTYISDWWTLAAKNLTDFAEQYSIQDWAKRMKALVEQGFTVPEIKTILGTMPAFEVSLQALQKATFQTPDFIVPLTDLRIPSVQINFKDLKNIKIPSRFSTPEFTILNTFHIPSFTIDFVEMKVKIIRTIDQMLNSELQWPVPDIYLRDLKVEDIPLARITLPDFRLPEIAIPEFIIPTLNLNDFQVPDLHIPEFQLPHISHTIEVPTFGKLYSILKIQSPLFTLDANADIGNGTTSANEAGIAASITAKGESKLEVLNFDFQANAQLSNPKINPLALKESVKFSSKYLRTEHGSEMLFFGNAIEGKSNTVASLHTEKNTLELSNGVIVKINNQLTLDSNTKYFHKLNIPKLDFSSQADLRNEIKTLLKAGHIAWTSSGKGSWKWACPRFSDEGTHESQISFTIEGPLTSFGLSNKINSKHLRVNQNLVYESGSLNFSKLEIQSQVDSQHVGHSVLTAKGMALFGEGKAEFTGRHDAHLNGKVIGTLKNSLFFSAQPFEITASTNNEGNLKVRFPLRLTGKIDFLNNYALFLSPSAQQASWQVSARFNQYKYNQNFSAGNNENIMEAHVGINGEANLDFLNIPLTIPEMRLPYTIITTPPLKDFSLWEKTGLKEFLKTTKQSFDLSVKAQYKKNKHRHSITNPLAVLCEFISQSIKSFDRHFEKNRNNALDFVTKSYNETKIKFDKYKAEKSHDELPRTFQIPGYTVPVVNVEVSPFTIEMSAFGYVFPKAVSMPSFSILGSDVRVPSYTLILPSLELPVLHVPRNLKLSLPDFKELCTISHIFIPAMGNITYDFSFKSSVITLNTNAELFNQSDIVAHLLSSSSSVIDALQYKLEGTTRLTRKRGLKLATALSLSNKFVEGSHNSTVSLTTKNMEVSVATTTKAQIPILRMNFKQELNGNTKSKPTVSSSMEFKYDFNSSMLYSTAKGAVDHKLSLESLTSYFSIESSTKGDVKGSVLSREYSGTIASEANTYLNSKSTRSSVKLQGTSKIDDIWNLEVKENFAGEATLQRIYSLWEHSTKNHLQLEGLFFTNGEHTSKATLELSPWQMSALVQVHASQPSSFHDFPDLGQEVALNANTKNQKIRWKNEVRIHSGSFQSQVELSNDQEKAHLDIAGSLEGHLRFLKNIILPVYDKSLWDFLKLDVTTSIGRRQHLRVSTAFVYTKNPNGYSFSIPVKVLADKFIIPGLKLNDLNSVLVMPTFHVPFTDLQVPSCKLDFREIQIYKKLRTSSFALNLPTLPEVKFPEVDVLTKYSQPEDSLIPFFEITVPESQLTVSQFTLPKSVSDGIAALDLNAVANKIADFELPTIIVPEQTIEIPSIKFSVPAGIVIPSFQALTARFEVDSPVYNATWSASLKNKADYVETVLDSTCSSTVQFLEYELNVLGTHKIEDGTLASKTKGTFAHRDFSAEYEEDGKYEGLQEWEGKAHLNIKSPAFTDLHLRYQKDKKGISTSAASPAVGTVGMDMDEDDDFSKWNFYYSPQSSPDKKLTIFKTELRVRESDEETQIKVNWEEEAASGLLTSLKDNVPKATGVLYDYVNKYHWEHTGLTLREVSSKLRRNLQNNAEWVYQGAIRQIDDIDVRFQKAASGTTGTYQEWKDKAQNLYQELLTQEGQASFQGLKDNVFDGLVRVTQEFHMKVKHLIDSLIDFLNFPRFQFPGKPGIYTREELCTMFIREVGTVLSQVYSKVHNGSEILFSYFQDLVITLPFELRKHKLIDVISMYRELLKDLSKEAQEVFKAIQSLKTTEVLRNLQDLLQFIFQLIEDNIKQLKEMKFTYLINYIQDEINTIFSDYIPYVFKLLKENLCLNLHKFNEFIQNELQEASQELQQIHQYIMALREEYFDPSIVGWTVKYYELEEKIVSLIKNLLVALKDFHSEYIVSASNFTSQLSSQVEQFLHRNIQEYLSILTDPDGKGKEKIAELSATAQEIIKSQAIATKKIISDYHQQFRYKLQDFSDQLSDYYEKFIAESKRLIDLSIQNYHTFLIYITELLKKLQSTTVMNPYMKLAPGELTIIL
Put plainly: co-immunoprecipitation from IHH cell lysates with a human ApoB antibody, Western blot for the V5 tag (FIG. 7I). On the technique in general: A western blot detects proteins with antibodies after separation by electrophoresis.

For series [5], the target named is T2, secretory short N-terminal fragment of apoB (s-apoB; aa 1-965), P04114.
T2 chain: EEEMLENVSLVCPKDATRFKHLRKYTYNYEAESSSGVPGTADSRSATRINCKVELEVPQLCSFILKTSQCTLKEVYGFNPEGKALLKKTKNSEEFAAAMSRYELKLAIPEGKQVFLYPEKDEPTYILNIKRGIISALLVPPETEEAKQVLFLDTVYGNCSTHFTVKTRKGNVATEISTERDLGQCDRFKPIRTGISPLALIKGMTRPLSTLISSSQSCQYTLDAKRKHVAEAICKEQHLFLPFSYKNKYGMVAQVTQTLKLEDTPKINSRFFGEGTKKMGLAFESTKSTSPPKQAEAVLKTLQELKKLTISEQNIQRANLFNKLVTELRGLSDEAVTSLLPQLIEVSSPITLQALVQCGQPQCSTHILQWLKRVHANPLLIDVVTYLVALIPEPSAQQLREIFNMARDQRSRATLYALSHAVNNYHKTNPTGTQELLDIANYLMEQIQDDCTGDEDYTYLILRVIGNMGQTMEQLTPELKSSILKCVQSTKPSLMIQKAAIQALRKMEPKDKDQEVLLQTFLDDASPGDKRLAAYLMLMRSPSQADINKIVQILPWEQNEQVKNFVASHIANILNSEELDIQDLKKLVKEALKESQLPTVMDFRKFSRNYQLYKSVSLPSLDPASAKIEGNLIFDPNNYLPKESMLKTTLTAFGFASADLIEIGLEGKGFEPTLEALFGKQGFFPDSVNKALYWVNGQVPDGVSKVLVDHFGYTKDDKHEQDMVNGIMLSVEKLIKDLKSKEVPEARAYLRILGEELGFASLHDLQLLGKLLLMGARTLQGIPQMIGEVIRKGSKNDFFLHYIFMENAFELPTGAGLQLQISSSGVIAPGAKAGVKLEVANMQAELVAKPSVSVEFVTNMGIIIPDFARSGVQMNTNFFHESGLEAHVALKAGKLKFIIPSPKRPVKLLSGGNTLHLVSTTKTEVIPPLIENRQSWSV

In the case of “miR-320a-3p: predicted PCSK7-targeting miRNA with one predicted target site, overexpressed from precursor vector (AAAAGCUGGGUUGAGAGGGCGA; miRNA expressed from a precursor vector, further chemistry not given here)”, the “effect on expression of PCSK7 mRNA” value with PCSK7 mRNA [1] is given as “did not downregulate”. Also, the “effect on PCSK7 mRNA levels” value in the series with PCSK7 mRNA [2] is “no significant regulatory relationship”. Moreover, the “effect on luciferase activity” value in series [3] was “no significant effect”.

B1: SKI-1 tagged with V5 (enzyme, UniProt Q14703 187-1052, looked up)
chain: RAIPRQVAQTLQADVLWQMGYTGANVRVAVFDTGLSEKHPHFKNVKERTNWTNERTLDDGLGHGTFVAGVIASMRECQGFAPDAELHIFRVFTNNQVSYTSWFLDAFNYAILKKIDVLNLSIGGPDFMDHPFVDKVWELTANNVIMVSAIGNDGPLYGTLNNPADQMDVIGVGGIDFEDNIARFSSRGMTTWELPGGYGRMKPDIVTYGAGVRGSGVKGGCRALSGTSVASPVVAGAVTLLVSTVQKRELVNPASMKQALIASARRLPGVNMFEQGHGKLDLLRAYQILNSYKPQASLSPSYIDLTECPYMWPYCSQPIYYGGMPTVVNVTILNGMGVTGRIVDKPDWQPYLPQNGDNIEVAFSYSSVLWPWSGYLAISISVTKKAASWEGIAQGHVMITVASPAETESKNGAEQTSTVKLPIKVKIIPTPPRSKRVLWDQYHNLRYPPGYFPRDNLRMKNDPLDWNGDHIHTNFRDMYQHLRSMGYFVEVLGAPFTCFDASQYGTLLMVDSEEEYFPEEIAKLRRDVDNGLSLVIFSDWYNTSVMRKVKFYDENTRQWWMPDTGGANIPALNELLSVWNMGFSDGLYEGEFTLANHDMYYASGCSIAKFPEDGVVITQTFKDQGLEVLKQETAVVENVPILGLYQIPAEGGGRIVLYGDSNCLDDSHRQKDCFWLLDALLQYTSYGVTPPSLSHSGNRQRPPSGAGSVTPERMEGNHLHRYSKVLEAHLGDPKPRPLPACPRLSWAKPQPLNETAPSNLWKHQKLLSIDLDKVVLPNFRSNRPQVRPLSPGESGAWDIPGGIMPGRYNQEVGQTIPVFAFLGAMVVLAFFVVQINKAKSRPKRRKPRVKRPQLMQQVHPPKTPSV
notes: also called SKI-1-V5; not shown: V5 tag
For B1, in series [4], the binding result is recorded as “no binding”.

B2: rat PC7 soluble-KDEL variant (retained in the ER) (protein)
chain: SIHFNDPKYPQQWHLNNRRSPGRDINVTGVWERNVTGRGVTVVVVDDGVEHTVQDIAPNYSPEGSYDLNSNDPDPMPHPDEENGNHHGTRCAGEIAAVPNNSFCAVGVAYGSRIAGIRVLDGPLTDSMEAVAFNKHYQINDIYSCSWGPDDDGKTVDGPHQLGKAALQHGVMAGRQGFGSIFVVASGNGGQHNDNCNYDGYANSIYTVTIGAVDEEGRMPFYAEECASMLAVTFSGGDKMLRSIVTTDWDLQKGTGCTEGHTGTSAAAPLAAGMIALMLQVRPCLTWRDVQHIIVFTATQYEDHRADWLTNEAGFSHSHQHGFGLLNAWRLVNAAKIWTSVPYLASYVSPMLKENKAVPRSPHSLEVLWNVSRTDLEMSGLKTLEHVAVTVSITHPRRGSLELKLFCPSGMMSLIGAPRSMDSDPNGFNDWTFSTVRCWGERARGVYRLVIRDVGDEPLQVGILQQWQLTLYGSTWSPVDIKDRQSLLESAMSGKYLHDDFTLPCPPGLKIPEEDGYSITPNTLKTKDEL
In the case of B2, the “secretion of s-apoB (apo21) compared to rPC7, Western blot” value in series [5] is listed as “rPC7-KDEL significantly reduced (~30%) s-apoB (apo21) secretion compared to rPC7”.
